Measurements published in US20170007644A1, “A METHOD OF TREATING NEOPLASIA” (FUWAN PTY LTD, priority 2013, published 2017).

Tested on: A549-GFP cells (A549/lung cancer cells)
Assay: Proliferation assay (fluorescence intensity) of A549-GFP cells treated with MLPC and/or doxorubicin
Type: cell-based, human
Settings: doxorubicin alone 0.8 μM or 4 μM, 72 hours, FIG. 7
Method: Single cell suspensions of A549-GFP, A549-LG, and SKOV3-LG were obtained after trypsinization of the monolayer cultures and counted by trypan blue exclusion. In brief, the cells were seeded at various densities of 1000, 2000, 4000, 5000, 6000, and 10.000 cells into black microliter plates (Nunc) and incubated in 200 microliter culture medium for 3 days. Then the supernatant of cell culture were replaced by 100 microliter Dulbecco's Phosphate buffered saline (DPBS). The fluorescence intensity was determined by excitation and emission on fluorescent microplate reader (BMG).
Single cell suspensions of A549-GFP and SKOV3-LG were obtained by trypsinization of the monolayer cultures and counted by trypan blue exclusion. The proliferation of cancer cells, in particular the downregulation of proliferation, was evaluated by individual, simultaneous, two-stage models. MLPC and a chemotherapeutic drug were added simultaneously to A549-GFP and SKOV3-LG cells for 3 days. In a two-stage experiment, in the first stage MLPC were added to A549-GFP and SKOV3-LG cells for 3 days. In the second stage, supernatants of cells were removed and a chemotherapeutic drug was added for 3 days. […] Fluorescence intensities were determined to evaluate the effect on cancer cell proliferation of the various treatments and control.

## COc1cccc2c1C(=O)c1c(O)c3c(c(O)c1C2=O)C[C@@](O)(C(=O)CO)C[C@@H]3O[C@H]1C[C@H](N)[C@H](O)[C@H](C)O1 [doxorubicin]
  cancer cell proliferation (relative fluorescence intensity): significantly reduced cancer cell proliferation
